Read-outs that look alike come from different tables or passages of the source.
What was measured:
Type in all cases: cell-based
[1] = biological target: T1, mSUCNR1 (Mus musculus, UniProt Q99MT6); experiment: IP3 turnover assay in mSUCNR1 transfected HEK-293 cells; settings: for mSUCNR1 efficacy, %: efficacy relative to succinate (100%), HEK cells (N = 3); for mSUCNR1 efficacy, % / mSUCNR1 % @10^−4M: IP3 turnover; for mSUCNR1 % @10^−4M: relative to succinate (100%)
T1 construct: FLAG (own knowledge: pCMV-Tag 2B is an N-terminal FLAG vector); host or cells: HEK-293, transient transfection with Lipofectamine-2000
T1 sequence (Q99MT6 1-317): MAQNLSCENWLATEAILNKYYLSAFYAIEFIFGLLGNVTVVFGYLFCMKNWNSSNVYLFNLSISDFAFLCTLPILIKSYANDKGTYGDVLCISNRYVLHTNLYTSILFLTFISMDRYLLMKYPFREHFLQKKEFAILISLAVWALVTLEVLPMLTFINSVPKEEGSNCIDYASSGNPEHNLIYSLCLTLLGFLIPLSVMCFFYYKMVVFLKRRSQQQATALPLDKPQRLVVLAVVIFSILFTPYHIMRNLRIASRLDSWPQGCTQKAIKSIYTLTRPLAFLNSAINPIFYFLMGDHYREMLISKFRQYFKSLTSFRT
Experimental: (§1) Receptor constructs for mSUCNR1 and hSUCNR1 were bought from Origene and cloned into the eukaryotic expression vector pCMV-Tag(2B) (Stratagene).
(§2) Transient transfection of the HEK-293 cells was done with Lipofectamine-2000 according to manufacturer’s protocol. Cells were supplemented with fresh medium after 5 h.
(§3) 96-well plates were coated with poly-D-lysine and HEK-293 cells were plated (35.000 cells/well). Cells were transfected for 5 h the following day and subsequently incubated O/N with 0.5 μCi/mL myo[3H]inositol (Perkin Elmer) in 100 μL growth medium. On day 3 cells were washed with 200 µL HBSS/well (Gibco, Life Technologies) followed by a pre-incubation (30 min, 37 °C) with 100 µL HBSS supplemented with 10 mM LiCl. Cells were stimulated with ligand (120 min, 37 °C) and lysed with 50 µL 10 mM formic acid (30 min on ice). In a white 96 well plate 20 µL cell extracts and 80 µL 1:8 diluted YSi scintillation beads (Perkin Elmer) were mixed. The plate was spun down, and a Packard Top Count NXT counter recorded light emission (scintillation) after an 8 h delay.

[2] = biological target: T2, hSUCNR1 (Homo sapiens, UniProt Q9BXA5); experiment: IP3 turnover assay in hSUCNR1 transfected HEK-293 cells; settings: for hSUCNR1 efficacy, %: efficacy relative to succinate (100%), HEK cells (N = 3); for hSUCNR1 efficacy, % / hSUCNR1 % @10^−4M: IP3 turnover; for hSUCNR1 % @10^−4M: relative to succinate (100%)
T2 construct: FLAG (own knowledge: pCMV-Tag 2B is an N-terminal FLAG vector); host or cells: HEK-293, transient transfection with Lipofectamine-2000
T2 sequence (Q9BXA5 1-334): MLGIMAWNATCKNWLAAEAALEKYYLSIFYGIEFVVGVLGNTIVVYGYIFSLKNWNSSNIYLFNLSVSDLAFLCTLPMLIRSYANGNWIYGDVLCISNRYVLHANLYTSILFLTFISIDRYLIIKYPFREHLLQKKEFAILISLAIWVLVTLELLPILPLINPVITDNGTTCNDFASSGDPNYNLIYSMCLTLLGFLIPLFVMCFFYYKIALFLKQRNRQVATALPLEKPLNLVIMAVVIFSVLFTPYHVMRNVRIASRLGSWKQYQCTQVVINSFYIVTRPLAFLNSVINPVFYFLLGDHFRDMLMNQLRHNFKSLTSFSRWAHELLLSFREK
Experimental: as §1, §2, §3

[3] = tested on: SUCNR1; experiment: Active/inactive grouping by EC50 threshold (ALiBERO training set, Table S1); settings: active (1) / inactive (0), EC50 threshold of 10 µM
Description: In brief, starting from the homology model supported by mutagenesis data[4], ALiBERO introduced receptor flexibility via Normal Mode Analysis and Monte Carlo sampling, to generate a small subset of receptor models (pockets). […] For a list of all compounds used in the optimisation protocol, see Table S1. Receptor structures were then chosen based on their ability to discriminate actives from inactives in a retrospective virtual screening using the docking protocol and scoring function in ICM (Molsoft L.L.C., San Diego, CA, USA)[20], as measured by the normalised square root area under the curve (NSQ_AUC). […] The ALiBERO-optimised receptor ensemble was subsequently validated in a virtual ligand screening using an external test set with a higher active:decoy ratio (~1:50).
ALiBERO is an iterative sampling-selection protocol for receptor optimisation that relies on the use of ligand information for selecting the best-performing receptor conformations. Homology models of the mouse SUCNR1 receptor were constructed according to Trauelsen et al.[4] and loaded into ICM (Molsoft L.L.C., San Diego, CA, USA). The structure was converted into an ICM object, thereby assigning protein atom types, optimising hydrogens and His, Pro, Asn, […] and Cys side-chain conformations. […] For a list of all compounds used in the optimisation protocol, see Table S1. ALiBERO was performed using the prepared receptor structure and ligand training set as input. Binding site residues were manually selected based on proximity to the position of MRS2500 in the superimposed structure of the P2Y1 receptor (PDB 4XNW). 100 elastic network normal mode analysis derived conformers were built in order to recreate backbone and side-chain flexibility (T = 300 K). Next, a flexible-ligand static-receptor small-scale virtual screening was performed on each of the receptor conformers, from which several pockets were selected for the following generation. The ligand and decoy molecules were docked into mSUCNR1, represented as pre-calculated potential grids and then sorted according to their ICM VLS scores. The maximum number of complementary pockets for each generation was set to 5 with a maximum of 10 generations. Receptor models were selected based on their combined screening performance, as determined by the normalised square root area under the curve, NSQ_AUC. After each round of virtual screening, an all-atom Monte Carlo side-chain refinement was performed to account for induced-by-ligand changes. NSQ_AUC values were calculated according to Katritch et al.[16].

[4] = dose-response curves of induction of IP3 turnover in SUCNR1 transfected HEK cells (N = 3)
[5] = relative to the 4-methoxy compound 17
[6] = dose-response curves of induction of IP3 turnover in SUCNR1 transfected HEK cells (N = 3), read-out: mSUCNR1 pEC50 (converted)
[7] = dose-response curves of induction of IP3 turnover in SUCNR1 transfected HEK cells (N = 3), read-out: hSUCNR1 pEC50 (converted)

mSUCNR1 efficacy, % [1] | hSUCNR1 efficacy, % [2] | EC50 [1] | EC50 [2] | SMILES | Active [3] | other results
 |  |  |  | O=C(O)C[C@H](NC(=O)c1ccccc1Cl)C(=O)O [Compound 5, (2-Chlorobenzoyl)-L-aspartic acid] | 0 (inactive (0)) | mSUCNR1 % @10^−4M [1]: 13% @10^−4M; hSUCNR1 % @10^−4M [2]: 22% @10^−4M
 |  |  |  | O=C(O)C[C@H](NC(=O)c1cccc(I)c1)C(=O)O [Compound 6, (3-Iodobenzoyl)-L-aspartic acid] | 0 (inactive (0)) | mSUCNR1 % @10^−4M [1]: 64% @10^−4M; hSUCNR1 % @10^−4M [2]: 50% @10^−4M
 |  |  |  | O=C(O)C[C@H](NC(=O)c1ccc(Br)cc1)C(=O)O [Compound 7, (4-Bromobenzoyl)-L-aspartic acid] | 0 (inactive (0)) | mSUCNR1 % @10^−4M [1]: 15% @10^−4M; hSUCNR1 % @10^−4M [2]: 8% @10^−4M
 |  |  |  | O=C(O)C[C@H](NC(=O)Cc1ccc(Br)cc1)C(=O)O [Compound 8, (2-(4-Bromophenyl)acetyl)-L-aspartic acid] | 0 (inactive (0)) | mSUCNR1 % @10^−4M [1]: 11% @10^−4M; hSUCNR1 % @10^−4M [2]: 5% @10^−4M
 |  |  |  | O=C(O)C[C@H](NC(=O)Cc1ccc(-c2ccc(F)cc2)cc1)C(=O)O [Compound 9, (2-(4′-Fluoro-[1,1′-biphenyl]-4-yl)acetyl)-L-aspartic acid] | 0 (inactive (0)) | mSUCNR1 % @10^−4M [1]: 15% @10^−4M; hSUCNR1 % @10^−4M [2]: 25% @10^−4M
81.3 ± 3.6% | 81.6 ± 8.4% | 692 nM | 5130 nM | O=C(O)C[C@H](NC(=O)c1ccc(-c2ccccc2)o1)C(=O)O [Compound 10, (5-Phenylfuran-2-carbonyl)-L-aspartic acid] | 1 (active (1)) | 
76.7 ± 3.1% | 94.7 ± 8.7% | 741 nM | 5370 nM | Cc1ccccc1-c1ccc(C(=O)N[C@@H](CC(=O)O)C(=O)O)o1 [Compound 11, (5-(o-Tolyl)furan-2-carbonyl)-L-aspartic acid] | 1 (active (1)) | 
81.6 ± 3.0% | 91.9 ± 5.3% | 851 nM | 9550 nM | Cc1cccc(-c2ccc(C(=O)N[C@@H](CC(=O)O)C(=O)O)o2)c1 [Compound 12, (5-(m-Tolyl)furan-2-carbonyl)-L-aspartic acid] | 1 (active (1)) | 
79.6 ± 3.7% | 74.2 ± 11.8% | 1950 nM | 15500 nM | O=C(O)C[C@H](NC(=O)c1ccc(-c2cccc(CO)c2)o1)C(=O)O [Compound 14, (5-(3-(Hydroxymethyl)phenyl)furan-2-carbonyl)-L-aspartic acid] | 1 (active (1)) | decrease in potency ([1]; relative to the 3-methyl (12), orthologue not stated): 3 fold
74.8 ± 2.0% | 71.1 ± 4.2% | 151 nM | 741 nM | O=C(O)C[C@H](NC(=O)c1ccc(-c2ccc(O)cc2)o1)C(=O)O [Compound 15, (5-(4-Hydroxyphenyl)furan-2-carbonyl)-L-aspartic acid] | 1 (active (1)) | 
78.1 ± 3.1% | 103.8 ± 7.9% | 724 nM | 5130 nM | COc1ccccc1-c1ccc(C(=O)N[C@@H](CC(=O)O)C(=O)O)o1 [Compound 16, (5-(2-Methoxyphenyl)furan-2-carbonyl)-L-aspartic acid] | 1 (active (1)) | 
84.2 ± 1.8% | 85.3 ± 4.5% | 40.7 nM | 389 nM | COc1ccc(-c2ccc(C(=O)N[C@@H](CC(=O)O)C(=O)O)o2)cc1 [Compound 17, (5-(4-Methoxyphenyl)furan-2-carbonyl)-L-aspartic acid] | 1 (active (1)) | 
80.6 ± 4.6% | 81.0 ± 7.2% | 155 nM | 282 nM | O=C(O)C[C@H](NC(=O)c1ccc(-c2ccc(C(F)(F)F)cc2)o1)C(=O)O [Compound 18, (5-(4-(Trifluoromethyl)phenyl)furan-2-carbonyl)-L-aspartic acid] | 1 (active (1)) | 
76.0 ± 1.5% | 72.1 ± 3.2% | 162 nM | 407 nM | N#Cc1ccc(-c2ccc(C(=O)N[C@@H](CC(=O)O)C(=O)O)o2)cc1 [Compound 19, (5-(4-Cyanophenyl)furan-2-carbonyl)-L-aspartic acid] | 1 (active (1)) | 
69.7 ± 2.8% | 61.7 ± 3.6% | 191 nM | 102 nM | O=C(O)C[C@H](NC(=O)c1ccc(-c2ccc(OC(F)(F)F)cc2)o1)C(=O)O [Compound 20, (5-(4-(Trifluoromethoxy)phenyl)furan-2-carbonyl)-L-aspartic acid] | 1 (active (1)) | decrease in potency on mSUCNR1 [1, 5]: > 4 fold; increase in potency on hSUCNR1 [2, 5]: 2 fold

SMILES | mSUCNR1 efficacy, % [1] | hSUCNR1 efficacy, % [2] | EC50 [1] | EC50 [2] | Active [3] | other results
O=C(O)C[C@H](NC(=O)c1ccc(Br)o1)C(=O)O [Compound 4, (5-Bromofuran-2-carbonyl)-L-aspartic acid] | 95.8 ± 2.9% | 78.1 ± 7.5% |  |  | 0 (inactive (0)) | mSUCNR1 pEC50 [1, 4]: 4.93 ± 0.05; hSUCNR1 pEC50 [2, 4]: 4.53 ± 0.13
Cc1ccc(-c2ccc(C(=O)N[C@@H](CC(=O)O)C(=O)O)o2)cc1 [Compound 13, (5-(p-Tolyl)furan-2-carbonyl)-L-aspartic acid] | 73.2 ± 2.7% | 69.1 ± 3.9% |  |  | 1 (active (1)) | mSUCNR1 pEC50 [1, 4]: 6.83 ± 0.11; hSUCNR1 pEC50 [2, 4]: 6.33 ± 0.14
O=C(O)C[C@H](NC(=O)c1cccc(-c2ccc(OCC(F)(F)F)cc2)n1)C(=O)O [Compound 32, (6-(4-(2,2,2-Trifluoroethoxy)phenyl)picolinoyl)-L-aspartic acid] | 68.1 ± 2.5% | 88.7 ± 6.1% |  |  |  | EC50 [1, 6]: 100 nM; EC50 [2, 7]: 58.9 nM
CCCOc1ccc(-c2cccc(C(=O)N[C@@H](CC(=O)O)C(=O)O)n2)cc1 [Compound 33, (6-(4-Propoxyphenyl)picolinoyl)-L-aspartic acid] | 61.5 ± 3.8% | 66.4 ± 7.2% |  |  |  | EC50 [1, 6]: 51.3 nM; EC50 [2, 7]: 58.9 nM
